Measured values published in patent US9730447B2, “Fungicidal amides” (E I DU PONT DE NEMOURS AND COMPANY, priority 2013, dated 2017).

How the values were obtained:
Botrytis cinerea = experiment: Test A: preventive spray on tomato seedlings, Botrytis cinerea (gray mold), visual disease rating; type: in vivo; conditions: 100 = 100% disease control, 0 = no control relative to controls, unmarked values; for pest or weed control at 40 µg/mL, 160 g/ha: 96 h
Procedure, shortened: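 Tomato seedlings sprayed to run-off with 40 ppm or 10 ppm suspensions (160 or 40 g ai/ha) in acetone/water with 250 ppm surfactant. Inoculated with B. cinerea spores next day, held saturated at 20 °C for 48 h, then 27 °C for 2 days. Visual rating, 0–100% disease control relative to controls.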

[1] = system: Erysiphe graminis f. sp. tritici; experiment: Test E: preventive spray on wheat seedlings, Erysiphe graminis f. sp. tritici (wheat powdery mildew), visual disease rating; type: in vivo; conditions: 100 = 100% disease control, 0 = no control, unmarked values
Procedure, shortened: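 Wheat seedlings were sprayed to run-off with 40 or 10 ppm suspension (160 or 40 g ai/ha) and dusted with spores the next day. They were then kept 8 days at 20 °C. Disease was rated visually as % control relative to untreated controls (0–100).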

Septoria tritici = experiment: Test C: preventive spray on wheat seedlings, Septoria tritici (wheat leaf blotch), visual disease rating; type: in vivo; conditions: 100 = 100% disease control, 0 = no control, unmarked values
Procedure, shortened: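 Wheat seedlings sprayed to run-off at 40 ppm or 10 ppm (160 or 40 g ai/ha) in acetone/water with surfactant, inoculated with Septoria tritici spores next day. Held 48 h saturated at 24 °C, then 21 days at 20 °C. Visual rating scored as % disease control relative to controls.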

[2] = system: Stagonospora nodorum (also known as Septoria nodorum); experiment: Test B: preventive spray on wheat seedlings, Stagonospora nodorum (wheat glume blotch), visual disease rating; type: in vivo; conditions: 100 = 100% disease control, 0 = no control, unmarked values
Procedure, shortened: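 Compounds in acetone/water (50/50) with 250 ppm Trem 014 surfactant were sprayed to run-off at 40 ppm (160 g ai/ha) or 10 ppm (40 g ai/ha). Seedlings were inoculated with S. nodorum spores the next day, then held 48 h saturated at 20 °C and 6 days in a growth chamber at 20 °C. Visual rating as % disease control vs untreated.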

[3] = system: Puccinia recondite f. sp. tritici; experiment: Test D: preventive spray on wheat seedlings, Puccinia recondite f. sp. tritici (wheat leaf rust), visual disease rating; type: in vivo; conditions: 100 = 100% disease control, 0 = no control, unmarked values
Procedure, shortened: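 Wheat seedlings sprayed to run-off with 40 ppm (160 g ai/ha) or 10 ppm (40 g ai/ha) suspension in acetone/water with 250 ppm surfactant, inoculated next day with leaf rust spores. After 24 h saturated at 20 °C then 6 days at 20 °C, visual rating of disease control (0–100) relative to controls.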

Compound | pest or weed control at 40 µg/mL, 160 g/ha (Botrytis cinerea) [%] | melting point [°C] | Test E disease control rating [1] [%] | Test C disease control rating (Septoria tritici) [%] | Test B disease control rating [2] [%] | Test D disease control rating [3] [%] | Test A disease control rating (Botrytis cinerea) [%]
O=C(Nc1ccccc1-c1cnc(-n2ccc(C(F)(F)F)n2)cn1)c1ccccc1C(F)(F)F [Compound 1, 2-(trifluoromethyl)-N-[2-[5-[3-(trifluoromethyl)-1H-pyrazol-1-yl]-2-pyrazinyl]phenyl]benzamide] | 27 | 180 to 182 |  |  |  |  | 
Cn1cc(C(=O)Nc2ccccc2-c2cnc(-n3ccc(C(F)(F)F)n3)cn2)c(C(F)F)n1 [Compound 2, 3-(difluoromethyl)-1-methyl-N-[2-[5-[3-(trifluoromethyl)-1H-pyrazol-1-yl]-2-pyrazinyl]phenyl]-1H-pyrazole-4-carboxamide] | 15 | 207 to 209 |  |  |  |  | 
Cn1cc(C(=O)Nc2ccccc2-c2ccc(-n3ccc(C(F)(F)F)n3)nc2)c(C(F)F)n1 [Compound 51, 3-(difluoromethyl)-N-[2-[6-[3-(trifluoromethyl)-1H-pyrazol-1-yl]-3-pyridinyl]phenyl]-1-methyl-1H-pyrazole-4-carboxamide] | 97 | 157 to 159 |  |  |  |  | 
Cn1cc(C(=O)Nc2ccccc2-c2ccc(-n3ccc(C(F)(F)F)n3)nn2)c(C(F)F)n1 [Compound 54, 3-(difluoromethyl)-1-methyl-N-[2-[6-[3-(trifluoromethyl)-1H-pyrazol-1-yl]-3-pyridazinyl]phenyl]-1H-pyrazole-4-carboxamide] | 0 | 248 to 250 |  |  |  |  | 
O=C(Nc1ccccc1-c1cnc(-n2ccc(C(F)(F)F)n2)nc1)c1ncccc1C(F)(F)F [Compound 56, 3-(trifluoromethyl)-N-[2-[2-[3-(trifluoromethyl)-1H-pyrazol-1-yl]-5-pyrimidinyl]phenyl]-2-pyridinecarboxamide] | 16 | 178 to 180 |  |  |  |  | 
Cn1cc(C(=O)Nc2ccccc2-c2cnc(-n3ccc(C(F)(F)F)n3)nc2)c(C(F)F)n1 [Compound 58, 3-(difluoromethyl)-1-methyl-N-[2-[2-[3-(trifluoromethyl)-1H-pyrazol-1-yl]-5-pyrimidinyl]phenyl]-1H-pyrazole-4-carboxamide] | 0 | 167 to 169 |  |  |  |  | 
N#Cc1ccn(-c2ncc(-c3ccccc3NC(=O)c3ncccc3C(F)(F)F)cc2F)n1 [compound 86] |  |  | 79 | 98 | 0 | 100 | 89
Cn1cc(C(=O)Nc2ccccc2-c2ccc(-n3ccc(-c4cccc(F)c4)n3)nc2)c(C(F)F)n1 [compound 87] |  |  | 64 | 97 | 0 | 100 | 99
COc1ccc(-c2ccn(-c3ccc(-c4ccccc4NC(=O)c4cn(C)nc4C(F)F)cn3)n2)cc1 [compound 88] |  |  | 93 | 51 | 0 | 100 | 100
COc1ccccc1-c1ccn(-c2ccc(-c3ccccc3NC(=O)c3cn(C)nc3C(F)F)cn2)n1 [compound 98] |  |  | 48 | 75 | 0 | 100 | 67
Cn1cc(C(=O)Nc2ccccc2-c2ccc(-n3ccc(-c4ccc(F)cc4)n3)nc2)c(C(F)F)n1 [compound 99] |  |  | 91 | 90 | 0 | 100 | 89
COc1ccc(-c2ccn(-c3ccc(-c4ccccc4NC(=O)c4cn(C)nc4C(F)F)cn3)n2)c(OC)c1 [compound 100] |  |  | 69 | 87 | 60 | 100 | 58
Cn1cc(C(=O)Nc2ccccc2-c2ccc(-n3ccc(-c4ccc(F)cc4F)n3)nc2)c(C(F)F)n1 [compound 101] |  |  | 92 | 94 | 60 | 100 | 71
N-[2-[5-fluoro-6-[3-(trifluoromethyl)-1H-pyrazol-1-yl]-3-pyridinyl]phenyl]-3-(trifluoromethyl)-2-pyridinecarboxamide [Compound 50] |  |  | 100 | 100 | 100 | 100 | 99
